In patent US7767817B2, “Water soluble boronic acid fluorescent reporter compounds and methods of use thereof” (priority 2003, dated 2010):
Values joined by “and” are separate entries in the source; they are usually repeats but may differ in a detail not shown here. Identical values can stand only once. Like-named read-outs stand apart in the source and are kept apart here.

Columns and labels:
[1] = Fluorescence binding study with glucose; details: for maximum fluorescence intensity increase: physiological pH; for Association constant (Ka) with glucose: 0.1 M phosphate buffer pH 7.4, 1:1 complex assumed; for fluorescence intensity change ΔI/I0: pH 7.4
Protocol: (§1) For a typical sugar-BTBA fluorescent measurement, a 1.0×10^−5 M stock solution of BTBA in 0.10 M phosphate buffer at pH 7.4 was made as solution A. […] Solution B was titrated into solution A in order to make mixtures with a constant concentration of BTBA and a range of concentrations of the sugar. Each mixture was allowed to stand for at least 10 min, then 3.0 mL of the mixture was transferred into a cuvette for fluorescence measurement.
(§2) The association constants (Ka) were determined according to the method III in Valeur's publication (J. Phys. Chem. 1988, 92, 6233).

[2] = Fluorescence intensity pH profile (apparent pKa); format: physicochemical
From the text: Since the fluorescence intensity increase upon binding with a sugar seems to be a general phenomenon, the fluorescence change mechanism of compound 5 at pH 7.4 was investigated. For this purpose, the fluorescence pH profiles of both compound 5 alone and compound 5 in the presence of fructose (0.5 M) were studied. The fluorescence intensity of 5 at 334 nm in the absence of sugars decreased upon changing the pH from 3 to 12 (FIG. 3). An apparent pKa of 7.0 was observed, which is assigned to the boronic acid moiety. […] It is well-known that the binding of a diol to boronic acid often lowers the pKa of the boron species) (Springsteen, G.; Wang, B. Tetrahedron 2002, 58, 5291-5300). Therefore, the pKa, which drops from 7.0 to 4.0, can also be reasonably assigned to boron. […] It seems that the fluorescence intensity change of compound 5 is also due to diol's perturbation as that of 8-quinolineboronic acid.
To examine the relationship between the fluorescence intensity changes and the boron ionization states, the pH profile of the fluorescence intensity in the absence and presence of fructose and glucose at a fixed concentration (50 mM) was also studied (FIG. 6). […] It is worth mentioning that the pKa of the protonated dimethyl amino group of 1 is […] the emission wavelength of 1 with the protonated dimethyl amino group at low pH is about 238 nm. Therefore, the fluorescence intensity of 1 at 445 nm was not affected by the protonated dimethyl amino group. The fluorescence intensity changes correspond to the boronic acid pKa (9.4) and therefore hybridization changes, which was responsible for the fluorescence intensity changes observed.
Since the fluorescence intensity increase upon binding with a sugar seems to be a general phenomenon, next the conditions under which optimal fluorescence intensity changes are observed upon addition of a sugar was investigated. For this purpose, the fluorescence pH profiles of both compound 6 alone and in the presence of fructose (0.5 M) were studied. The fluorescence intensity of 6 in the absence of sugars increased by 17-fold upon changing the pH from 3 to 12 (FIG. 10). […] Furthermore, one would expect the pKa values of the other two ionizable groups, the carboxylic acid and the quinolinium groups, to be less than 7. Therefore, assigning the pKa at 7.9 to the boronic acid moiety is the most reasonable option. […] It is well-known that the binding of a diol to boronic acid often lowers the pKa of the boron species. […] Upon addition of fructose, the pKa of the boron drops to about 5.2, which ensures that most of the boron species are in the anionic tetrahedral state at physiological pH.
(§3) Since the fluorescence intensity increase upon binding with a sugar seems to be a general phenomenon, the use of 5-QBA functions as a fluorescent probe for diols was investigated. The fluorescence pH profiles of both 5-QBA alone and 5-QBA in the presence of D-fructose (0.5 M) were investigated. […] In order to assign each pKa, the ^11B NMR spectra of 5-QBA and its ester in a mixed deuterated methanol-water (1:1) solvent at different pH were obtained. Methanol was used so that the concentration of 5-QBA can be increased to 57 mM so as to allow for a meaningful NMR determination within a reasonable period of time.
To understand the structural features associated with the fluorescence intensity changes, we studied the pH profiles of the fluorescence intensity in the absence (FIG. 18) and presence of fructose and glucose at a fixed concentration (50 mM). […] The fluorescence intensity at 513 nm increased very quickly when pH increased from 1.78 to 7.04 (thin lines in FIG. 18), and then decreased in the pH range of 7.04-10.54 (thick lines in FIG. 18).

[3] = Fluorescence binding study with fructose; details: for fluorescence intensity change ΔI/I0: pH 7.4; for Association constant (Ka) with fructose: 0.1 M phosphate buffer pH 7.4, 1:1 complex assumed
Protocol: as §1, §2

[4] = Fluorescence binding study with galactose; details: for fluorescence intensity change ΔI/I0: pH 7.4; for Association constant (Ka) with galactose: 0.1 M phosphate buffer pH 7.4, 1:1 complex assumed
Protocol: as §1, §2

[5] = Fluorescence binding study with tagatose
Protocol: as §1, §2

[6] = Fluorescence binding study with mannose; details: for Association constant (Ka) with mannose: 0.1 M phosphate buffer pH 7.4, 1:1 complex assumed
Protocol: as §1, §2

[7] = Fluorescence binding study with sorbitol
Protocol: as §1, §2

[8] = Fluorescence quantum yield; format: physicochemical; details: 0.1 M phosphate buffer pH 7.4
Protocol: The effect of various carbohydrates on the fluorescent properties of compound 1 was determined in phosphate buffer at pH 7.4. The emission spectral change of 1 with fructose at different concentrations in 0.1 M aqueous phosphate buffer (pH 7.4) is shown in FIG. 4. A 41-fold emission intensity increase is observed in presence of 50 mM fructose. To the best of our knowledge, such a large emission intensity increase has never been reported for boronic acid-based saccharide sensors involving the ICT mechanism. The quantum yields of 1 in the absence (φF=0.010) and in the presence of 50 mM fructose (φF=0.42) in 0.1 M phosphate buffer (pH 7.4) were obtained using 8-quinoline boronic acid (φF=0.58 in 12 M H2SO4) as a reference compound.
For example, addition of fructose (50 mM) to the solution of 7 induced a 36-fold fluorescence intensity increase at 433 nm and a 0.55-fold fluorescence intensity decrease at 513 nm (FIG. 14). […] To the best of our knowledge, such large emission intensity changes at two wavelengths have never been reported for boronic acid-based saccharide sensors. The quantum yields (φF) of 7 were determined as 0.07 at 513 nm in 0.1 M phosphate buffer (pH 7.4) in the absence of a sugar and 0.23 at 433 nm in the presence of 50 mM of fructose, using 8-quinoline boronic acid (φF=0.58 in 12 M H2SO4) as a reference compound.

[9] = literature value (Springsteen, Wang); cited from earlier work
[10] = literature value (Springsteen, Wang); cited from earlier work; remark: listed apart in the source
[11] = literature value; cited from earlier work
[12] = in 12 M H2SO4; reference compound; cited from earlier work
[13] = 11B NMR at different pH (pKa assignment); format: physicochemical; details: absence of sugar; 11B NMR in deuterated methanol-water (1:1); read-out: second pKa corresponding to boronic acid ionization
From the text: as §3
It should be noted that the addition of 50% methanol to water solution results in minimal changes of the solution pH. The boron signal of 5-QBA appeared at 30.0 ppm at both pH 2.0 and 7.0, consistent with the neutral trigonal boron. At an increased pH (7.5), two boron signals at 30.0 and 10.0 ppm were observed indicating a mixture of both the neutral and anionic species. […] At pH 12, a single peak at 5.7 ppm was found indicating the presence of only the anionic tetrahedral state. […] This pKa assignment is opposite to that of 8-QBA. For the fructose ester of 5-QBA, we observed the same chemical shifts (at about 10.5 ppm) at pH 6.0 and 11. […] Such a pKa-switching seems to correspond to the highest fluorescence intensity change at pH 5.8 (FIG. 13).

[14] = Fluorescence binding study with arabinose; details: 0.1 M phosphate buffer pH 7.4
Protocol: For a typical sugar-BTBA fluorescent measurement, a 1.0×10^−5 M stock solution of BTBA in 0.10 M phosphate buffer at pH 7.4 was made as solution A. The sugar was added to a portion of solution A to make a 1.0×10^−5 M BTBA, 1.0×10^−3 M sugar solution as solution B. Solution B was titrated into solution A in order to make mixtures with a constant concentration of BTBA and a range of concentrations of the sugar. Each mixture was allowed to stand for at least 10 min, then 3.0 mL of the mixture was transferred into a cuvette for fluorescence measurement.
as §2

[15] = 0.1 M phosphate buffer, absence of sugar, 0.1 M phosphate buffer, read-out: apparent pKa assigned to the boronic acid moiety
[16] = 0.1 M phosphate buffer pH 7.4, 1:1 complex assumed

For `O=C(O)c1cc(-c2ccc(B(O)O)cc2)nc2ccccc12` [Compound 6, 2-(4-phenylboronic acid)-quinoline-4-carboxylic acid], the “maximum fluorescence intensity increase” value ([1]; glucose 0.2 M) was 6 fold, the pKa [2, 15] was 7.9 and the emission intensity increase ([3]; 25 mM fructose, phosphate buffer pH 7.4) was 25 fold.
With `CN(C)c1ccc(B(O)O)c2ccccc12` [Compound 1, 4-(dimethylamino)-naphthalene boronic acid] the “Association constant (Ka) with glucose” value [1] was 4.0 ± 0.1 M⁻¹ and 5.1 ± 1.0 M⁻¹, the “fluorescence intensity change ΔI/I0” value ([1]; glucose 0.20 M, λex 270 nm, λem 400 nm) was 6 (0.20) and the “fluorescence intensity change ΔI/I0” value ([1]; glucose 1.0 M, λex 300 nm, λem 445 nm) was 17 (1.0). The “maximum fluorescence intensity increase” value ([1]; glucose 1 M) was 17 fold, the “fluorescence intensity change ΔI/I0” value ([4]; galactose 0.025 M, λex 270 nm, λem 400 nm) was 16 (0.025) and the “fluorescence intensity change ΔI/I0” value ([4]; galactose 0.50 M, λex 300 nm, λem 445 nm) was 35 (0.50). For the same compound, the “Association constant (Ka) with tagatose” value [5, 16] was 116 ± 2 M⁻¹, the “fluorescence intensity change ΔI/I0” value ([5]; tagatose 0.02 M, pH 7.4, λex 300 nm, λem 445 nm) was 32 (0.02) and the “Association constant (Ka) with mannose” value [6] was 48 ± 5 M⁻¹. The “fluorescence intensity change ΔI/I0” value ([6]; mannose 0.025 M, pH 7.4, λex 270 nm, λem 400 nm) was 14 (0.025), the pKa [2, 15] was 9.4 and the “Association constant (Ka) with sorbitol” value [7, 16] was 226 ± 5 M⁻¹. For the same compound, the “fluorescence intensity change ΔI/I0” value ([7]; sorbitol 0.10 M, pH 7.4, λex 300 nm, λem 445 nm) was 42 (0.10), the fluorescence intensity change ([7]; sorbitol at concentrations above 50 mM, physiological pH) was “more than 40 fold” and the emission intensity increase ([3]; 50 mM fructose, 0.1 M aqueous phosphate buffer pH 7.4) was 41 fold. For the same compound, the “fluorescence intensity change ΔI/I0” value ([3]; fructose 0.025 M, λex 270 nm, λem 400 nm) was 25 (0.025), the “fluorescence intensity change ΔI/I0” value ([3]; fructose 0.05 M, λex 300 nm, λem 445 nm) was 41 (0.05) and the fluorescence intensity change ([3]; fructose at concentrations above 50 mM, physiological pH) was “more than 40 fold”. For the same compound, the “quantum yield φF” value ([8]; absence of sugar) was 0.010 and the “quantum yield φF” value ([8]; presence of 50 mM fructose) was 0.42.
With `OB(O)c1cc2ccccc2s1` [Compound 5, 2-Benzothienylboronic acid] the “Association constant (Ka) with glucose” value [1] was 27 M⁻¹ and 27 ± 4.9 M⁻¹, the “Association constant (Ka) with galactose” value [4] was 19 M⁻¹ and 19 ± 0.7 M⁻¹ and the “Association constant (Ka) with mannose” value [6] was 30 ± 1.4 M⁻¹. The pKa [2, 15] was 7 and the “Association constant (Ka) with fructose” value [3] was 656 ± 28 M⁻¹.
In the case of `OB(O)c1ccccc1` [phenylboronic acid], the Ka for glucose [9] is given as 5 M⁻¹, the Ka for galactose [10] is given as 15 M⁻¹ and the Ka for fructose [11] is given as 162 M⁻¹.
In the case of `OB(O)c1cccc2cccnc12` [Compound 4, 8-quinolineboronic acid], the “quantum yield φF” value [12] is given as 0.58.
For `OB(O)c1cccc2ncccc12` [Compound 3], the “Association constant (Ka) with galactose” value [4] was 90 ± 2 M⁻¹, the “Association constant (Ka) with mannose” value [6] was 60 ± 2 M⁻¹ and the pKa ([2]; phosphate buffer, absence of a sugar, read-out: pKa assigned to the quinolinium nitrogen) was 5.2. The pKa [13] was 7 to 12, the “Binding constant with arabinose” value [14] was 121 ± 16 M⁻¹ and the “Association constant (Ka) with fructose” value [3] was 924 ± 88 M⁻¹. For the same compound, the “binding constant with D-fructose, increase compared with 8-QBA” value ([3]; 5-QBA versus 8-QBA) was “more than 8 folds”.
